Patent US20130096160A1, “ARYLTHIAZOLYL PIPERIDINES AND RELATED COMPOUNDS AS MODULATORS OF SURVIVAL MOTOR NEURON (SMN) PROTEIN PRODUCTION” (Secretary, Department of Health and Human Services, priority 2010, published 2013)

System: SMN2-luciferase reporter
Assay: SMN2-luciferase reporter qHTS assay
Assay type: cell-based, human
Set-up: key to Curve Class: A curve class of 1.1 is a full agonist/antagonist; a curve class of 4 indicates the compound is inactive
Conditions: for Curve Class: agonist/antagonist character of the concentration-response, lower values = more significant concentration-response; for Increased SMN2 activity: percent increase (or decrease) in SMN2 levels compared to control in which no test compound is added
Source text: A cell-based quantitative high throughput screening (qHTS) assay is used to identify compounds able to increase SMN production. The assay uses a SMN2-luciferase reporter to determine if exon 7 of the SMN gene is expressed, which correlates with increased full-length SMN production from the SMN2 gene. As controls, a homologue SMN1-luciferase reporter cell line looks for variations in expression of the SMN1 gene and a cell line with just the luciferase reporter looks at the capacity of the compounds to inhibit luciferase. In addition, increments in SMN production by lead compounds were confirmed by Western-Blot analysis using SMA patient fibroblasts.
For the qHTS assay, concentration-response profiles are generated at the primary-screen level for each library compound to minimize the number of false positives. A dilution series consisting of seven points separated by five-fold concentration differences is prepared for each compound, yielding a concentration series that spans a range of about four orders of magnitude, for example from a high concentration of 50 micromolar to a low concentration of 3.2 nanomolar and providing adequate data for fitting to a Hill equation. For the assay, the SMN2 reporter cell line was plated at a density of ˜2000 cells/well in complete media (phenol red free DMEM, 10% detacl calf serum, and 1× pen/strep), in 1536 well white solid bottom tissue culture treated plates (Greiner). Cells were allowed to adhere and recover at 37 C in 5% CO2 for 10-12 hours. Compounds were added to the plates by a Pintool (Kalypsys) at a volume of 23 nl/well. Cells were incubated in the presence of compounds for 2 days at 37 C in 5% CO2. In order to quantify luciferase reporter levels, 3 ul/well of OneGlo (Promega) was added to each well and incubated at room temperature for 10 minutes. Luminescence from the reporter in each well is measured using a Viewlux CCD based imager (Perkin Elmer) with an integration time of 30 seconds and a binning of 2× in luminescence mode. Sodium butyrate was used as the positive control compound for luciferase induction and a column of 32 wells of 9.2 mM compound on each plate was used to monitor assay performance.
The SMN reporters used herein are modified from those previously described (M. L. Zhang, C. L. Lorson, E. J. Androphy and J. Zhou, An in vivo reporter system for measuring increased inclusion of exon 7 in SMN2 mRNA: potential therapy of SMA, Gene Ther 8 (2001), pp. 1532-1538.)
The sequence of the SMN1 reporter vector used herein is given in SEQ ID NO.:1, while that of the SMN2 reporter vector is given in SEQ ID NO.:2.
Each of the SMN reporters is constructed from three separate DNA fragments: (1) an SMN promotor sequence from the transcriptional reporter p 4.0T (SMN1) or p3.4C (SMN2) described in Monani, et al. Biochimica et Biophysica Acta 1445 (1999) 330-336; (2) a modification of the firefly luciferase splicing reporter for SMN1 or SMN2 described by Zhang et al; and (3) a 744 bp SMN cDNA fragment.
The 3.7 kB SMN1 promoter fragment is obtained by restriction of p4.0T with BglII and SacII. A 3.4 kB SMN2 promoter fragment is obtained by restriction of p3.4C with KpnI and SacII; a 300 bp BglII/KpnI fragment from p4.0T is then added to the 3.4 kB SMN2 promoter fragment to yield the final 3.7 kB SMN2 promoter fragment.
The modified SMN1 and SMN2 firefly luciferase splicing reporters are obtained by removing 4 kB of intron 6 in the original reporter system by restriction with SmaI/Swa followed by religation of the reporter. A 4 kB luciferase splicing reporter is then obtaind by digestion with XhoI and NotI.
Ths SMN cDNA fragment is obtained by generating the productof a polymerase chain reaction (PCR) on a cDNA preparation using […] (SEQ ID NO:3) as the forward primer and Tatctcgagtggtccagaaggaaatggaggcagcc (SEQ ID NO:4) as the reverse primer. The PCR product is then digested with XhoI and SacII. […]

SMILES	Curve Class	Increased SMN2 activity
CNC(=O)C1CCN(c2nc(-c3ccc(Br)cc3)cs2)CC1 [Example 70, 1-(4-(4-Bromophenyl)Thiazol-2-yl)-N-Methylpiperidine-4-Carboxamide]	2.1	101.9%
CN(C)C(=O)C1CCN(c2nc(-c3ccc(Br)cc3)cs2)CC1 [Example 71, 1-(4-(4-Bromophenyl)Thiazol-2-yl)-N,N-Dimethylpiperidine-4-Carboxamide]	2.4	42.71%
O=C(Nc1ccccc1)C1CCN(c2nc(-c3ccc(Br)cc3)cs2)CC1 [Example 72, 1-(4-(4-Bromophenyl)Thiazol-2-yl)-N-Phenylpiperidine-4-Carboxamide]	1.1	262.4%
O=C(C1CCN(c2nc(-c3ccc(Br)cc3)cs2)CC1)N1CCOCC1 [Example 74, (1-(4-(4-Bromophenyl)Thiazol-2-yl)Piperidin-4-yl)(Morpholino)Methanone]	2.2	77.48%
O=C(NCCc1ccccc1)C1CCN(c2nc(-c3ccc(Br)cc3)cs2)CC1 [Example 77, 1-(4-(4-Bromophenyl)Thiazol-2-yl)-N-Phenethylpiperidine-4-Carboxamide]	2.4	31.29%
NC(=O)C1CCN(c2nccc(-c3ccc(Br)cc3)n2)CC1 [Example 80, 1-(4-(4-Bromophenyl)Pyrimidin-2-yl)Piperidine-4-Carboxamide]	1.1	387%
NC(=O)C1CCN(c2nc(-c3cccc(C(F)(F)F)c3)cs2)CC1 [Example 81, 1-(4-(3-(Trifluoromethyl)Phenyl)Thiazol-2-yl)Piperidine-4-Carboxamide]	2.2	100%
COc1ccc(-c2csc(N3CCC(C(N)=O)CC3)n2)cc1OC [Example 83, 1-(4-(3,4-Dimethoxyphenyl)Thiazol-2-yl)Piperidine-4-Carboxamide]	2.4	58.51%
COc1cc(-c2csc(N3CCC(C(N)=O)CC3)n2)cc(OC)c1OC [Example 84, 1-(4-(3,4,5-Trimethoxyphenyl)Thiazol-2-yl)Piperidine-4-Carboxamide]	2.2	73.33%
COc1cc(OC)cc(-c2csc(N3CCC(C(N)=O)CC3)n2)c1 [Example 85, 1-(4-(3,5-Dimethoxyphenyl)Thiazol-2-yl)Piperidine-4-Carboxamide]	1.4	44.77%
NC(=O)C1CCN(c2ncc(-c3ccc(Br)cc3)s2)CC1 [Example 87, 1-(5-(4-Bromophenyl)Thiazol-2-yl)Piperidine-4-Carboxamide]	1.1	598.7%
CN(C)c1cccc(-c2cnc(N3CCC(C(N)=O)CC3)s2)c1 [Example 88, 1-(5-(3-(Dimethylamino)Phenyl)Thiazol-2-yl)Piperidine-4-Carboxamide]	1.1	550.44%
CN(C)c1cccc(-c2cnc(N3CCC(C(N)=O)CC3)nc2)c1 [Example 89, 1-(5-(3-(Dimethylamino)Phenyl)Pyrimidin-2-yl)Piperidine-4-Carboxamide]	1.1	236.25%
CN(C)c1cccc(-c2ccnc(N3CCC(C(N)=O)CC3)n2)c1 [Example 90, 1-(4-(3-(Dimethylamino)Phenyl)Pyrimidin-2-yl)Piperidine-4-Carboxamide]	1.1	446.3%
CC(C)Oc1ccc(-c2csc(N3CCC(C(N)=O)CC3)n2)cc1 [Example 91, 1-(4-(4-Isopropoxyphenyl)Thiazol-2-yl)Piperidine-4-Carboxamide]	1.1	178.2%
NC(=O)C1CCN(c2nc(-c3ccc(Oc4ccccc4)cc3)cs2)CC1 [Example 92, 1-(4-(4-Phenoxyphenyl)Thiazol-2-yl)Piperidine-4-Carboxamide]	1.1	240%
NC(=O)C1CCN(c2nc(-c3ccc4c(c3)OCC4)cs2)CC1 [Example 93, 1-(4-(2,3-Dihydrobenzofuran-6-yl)Thiazol-2-yl)Piperidine-4-Carboxamide]	2.1	401.7%
NC(=O)C1CCN(c2nc(-c3ccc(OC(F)(F)F)cc3)cs2)CC1 [Example 95, 1-(4-(4-(Trifluoromethoxy)Phenyl)Thiazol-2-yl)Piperidine-4-Carboxamide]	1.1	296.8%
CCOc1ccc(-c2csc(N3CCC(C(N)=O)CC3)n2)cc1 [Example 96, 1-(4-(4-Ethoxyphenyl)Thiazol-2-yl)Piperidine-4-Carboxamide]	1.1	211.6%
CC(C)(C)c1ccc(-c2csc(N3CCC(C(N)=O)CC3)n2)cc1 [Example 98, 1-(4-(4-Tert-Butylphenyl)Thiazol-2-yl)Piperidine-4-Carboxamide]	1.1	243.3%
NC(=O)C1CCN(c2nc(-c3ccc4c(c3)OCCCO4)cs2)CC1 [Example 99, 1-(4-(3,4-Dihydro-2H-Benzo[B][1,4]Dioxepin-7-yl)Thiazol-2-yl)Piperidine-4-Carboxamide]	1.1	443.2%
CN(C)c1ccc(-c2csc(N3CCC(C(N)=O)CC3)n2)cc1 [Example 100, 1-(4-(4-(Dimethylamino)Phenyl)Thiazol-2-yl)Piperidine-4-Carboxamide]	2.2	64.26%
N#CC1CCN(c2nc(-c3ccc(Br)cc3)cs2)CC1 [Example 102, 1-(4-(4-Bromophenyl)Thiazol-2-yl)Piperidine-4-Carbonitrile]	2.2	77.87%
CN(C)c1cccc(-c2nccc(N3CCC(C(N)=O)CC3)n2)c1 [Example 104, 1-(2-(3-(Dimethylamino)Phenyl)Pyrimidin-4-yl)Piperidine-4-Carboxamide]	2.1	306.3%
CC(C)COc1ccc(-c2csc(N3CCC(C(N)=O)CC3)n2)cc1 [Example 106, 1-(4-(4-Isobutoxyphenyl)Thiazol-2-yl)Piperidine-4-Carboxamide]	1.2	54%
CC(C)Oc1cccc(-c2csc(N3CCC(C(N)=O)CC3)n2)c1 [Example 107, 1-(4(3-Isopropoxyphenyl)Thiazol-2-yl)Piperidine-4-Carboxamide]	1.1	605.6%
Brc1ccc(-c2csc(N3CCNCC3)n2)cc1 [Example 108, 4-(4-Bromophenyl)-2-(Piperazin-1-yl)Thiazole]	−2.1	−97.29%
CC(=O)N1CCN(c2nc(-c3ccc(Br)cc3)cs2)CC1 [Example 110, 1-(4-(4-(4-Bromophenyl)Thiazol-2-yl)Piperazin-1-yl)Ethanone]	1.1	234.5%
NC1CCN(c2nc(-c3ccc(Br)cc3)cs2)CC1 [Example 111, 1-(4-(4-Bromophenyl)Thiazol-2-yl)Piperidin-4-Amine]	1.1	182.6%
Brc1ccc(-c2csc(N3CCC(c4nnn[nH]4)CC3)n2)cc1 [Example 112, 2-(4-(1H-Tetrazol-5-yl)Piperidin-1-yl)-4-(4-Bromophenyl)Thiazole]	2.1	66.77%
